Biological target: T1, SHP2 protein (Homo sapiens, UniProt Q06124)
T1 sequence (Q06124 1-593): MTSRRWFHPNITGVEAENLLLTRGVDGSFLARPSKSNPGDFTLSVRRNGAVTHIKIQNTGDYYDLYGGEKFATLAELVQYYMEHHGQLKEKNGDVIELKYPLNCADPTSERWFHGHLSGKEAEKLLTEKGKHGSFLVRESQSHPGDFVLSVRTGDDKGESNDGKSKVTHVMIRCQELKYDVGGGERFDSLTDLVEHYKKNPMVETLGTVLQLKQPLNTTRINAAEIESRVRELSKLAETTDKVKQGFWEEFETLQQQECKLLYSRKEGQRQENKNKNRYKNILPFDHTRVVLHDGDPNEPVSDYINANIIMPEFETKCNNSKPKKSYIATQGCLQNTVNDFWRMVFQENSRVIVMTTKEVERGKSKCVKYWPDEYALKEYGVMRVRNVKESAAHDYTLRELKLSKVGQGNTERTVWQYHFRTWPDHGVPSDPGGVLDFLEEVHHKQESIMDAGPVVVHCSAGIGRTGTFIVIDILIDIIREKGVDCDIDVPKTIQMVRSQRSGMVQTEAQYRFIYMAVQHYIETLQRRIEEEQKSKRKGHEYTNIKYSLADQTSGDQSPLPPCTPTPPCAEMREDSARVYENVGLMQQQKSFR
Test: Degradation activity on SHP2 protein in MIA Paca-2 cells (Western blot, DC50)
Type: cell-based
Parameters: endogenous in cells; host or cells: MIA Paca-2 cells
Conditions: read-out: Degradation activity for differenct cell lines MIA Paca-2 (DC50)
How it was run: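 Cells were treated 24 h at 37 °C with compound (0.1–100 nM final, 0.1% DMSO). SHP2 was measured by Western blot with GAPDH as loading control, densitometry normalized to DMSO (100%). DC50, the concentration giving 50% degradation, came from a dose-response fit.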

| Structure (SMILES) | DC50 |
| --- | --- |
| CC1(N)CCN(c2cnc(Sc3cccc(NC(=O)c4ccc(N5CCC(N6CC=C(c7ncc(C(=O)NCc8ccc9c(c8)CN(C8CCC(=O)NC8=O)C9=O)cc7C(F)(F)F)CC6)CC5)cc4)c3)cn2)CC1 (centres unmarked) [Compound 359] | < 0.1 µM |
| C[C@@H]1OCC2(CCN(c3cnc(Sc4cccc(NC(=O)c5ccc(N6CCN(c7ccc(C(=O)NCc8ccc9c(c8)C(=O)N(C8CCC(=O)NC8=O)C9)nn7)CC6)c(F)c5)c4)cn3)CC2)[C@@H]1N (some centres unmarked) [Compound 261] | < 0.1 µM |
| CC1(N)CCN(c2cnc(Sc3cccc(NC(=O)c4ccc(N5CCC(N6CC=C(c7ccc(C(=O)NCc8ccc9c(c8)CN(C8CCC(=O)NC8=O)C9=O)nc7)CC6)CC5)cc4)c3)cn2)CC1 (centres unmarked) [Compound 312] | < 0.1 µM |
| CC1(N)CCN(c2cnc(Sc3cccc(NC(=O)C4CC45CCC(N4CC=C(c6ccc(C(=O)Nc7ccc8c(c7)CN(C7CCC(=O)NC7=O)C8=O)nn6)CC4)CC5)c3)cn2)CC1 (single isomer, unassigned) [Compound 320] | > 1 µM |
| CC1(N)CCN(c2cnc(Sc3cccc(NC(=O)COc4ccc(N5CCN(c6ccc(C(=O)NCc7ccc8c(c7)CN(C7CCC(=O)NC7=O)C8=O)nn6)CC5)cc4)c3)cn2)CC1 (centres unmarked) [Compound 265] | < 0.1 µM |
| CC1(N)CCN(c2cnc(Sc3cccc(NC(=O)C4CC(N5CCC(N6CC=C(c7ccc(C(=O)NCc8ccc9c(c8)CN(C8CCC(=O)NC8=O)C9=O)nn7)CC6)CC5)C4)c3)cn2)CC1 (centres unmarked) [Compound 296] | < 0.1 µM |
| CC1(N)CCN(c2cnc(Sc3cccc(NC(=O)C4CC(N5CCN(c6ccc7c(c6)C(=O)N(C6CCC(=O)NC6=O)C7=O)CC5)C4)c3)cn2)CC1 (centres unmarked) [Compound 268] | > 1 µM |
| CC1(N)CCN(c2cnc(Sc3cccc(NCc4ccc(N5CCC(N6CCN(c7ccc8c(c7)C(=O)N(C7CCC(=O)NC7=O)C8)CC6)CC5)c(F)c4)c3)cn2)CC1 (centres unmarked) [Compound 291] | > 1 µM |
| COc1nc(C2=CCN(C3CCN(c4ccc(C(=O)Nc5cccc(Sc6cnc(N7CCC(C)(N)CC7)cn6)c5)cc4)CC3)CC2)ccc1C(=O)NCc1ccc2c(c1)CN(C1CCC(=O)NC1=O)C2=O (centres unmarked) [Compound 338] | < 0.1 µM |
| CC1(N)CCN(c2cnc(Sc3cccc(NC(=O)c4ccc(N5CCN(c6ccc(C(=O)NCc7ccc8c(c7)C(=O)N(C7CCC(=O)NC7=O)C8)nn6)CC5)c(F)c4)c3)cn2)CC1 (centres unmarked) [Compound 260] | > 1 µM |
| C[C@@H]1OCC2(CCN(c3cnc(Sc4cccc(NC(=O)c5ccc(N6CCC(N7CCN(c8ccc9c(c8)C(=O)N(C8CCC(=O)NC8=O)C9=O)CC7)CC6)c(F)c5)c4)cn3)CC2)[C@@H]1N (some centres unmarked) [Compound 279] | > 1 µM |
| CC1(N)CCN(c2cnc(Sc3cccc(NC(=O)c4ccc(N5CCC(N6CC=C(c7ccc(C(=O)N8CCN(c9ccc%10c(c9)CN(C9CCC(=O)NC9=O)C%10=O)CC8)nc7)C(C)(C)C6)CC5)cc4)c3)cn2)CC1 (centres unmarked) [Compound 304] | < 0.1 µM |
| C[C@@H]1OCC2(CCN(c3cnc(Sc4cccc(NC(=O)[C@H]5C[C@@H]5c5ccc(N6CCN(c7ccc(C(=O)N8CCN(c9ccc%10c(c9)CN(C9CCC(=O)NC9=O)C%10=O)CC8)nn7)CC6)c(F)c5)c4)cn3)CC2)[C@@H]1N (some centres unmarked) [Compound 284] | < 0.1 µM |
| C[C@@H]1OCC2(CCN(c3cnc(Sc4cccc(NC(=O)[C@H]5C[C@@H]5c5ccc(N6CCN(c7ccc(C(=O)NCc8ccc9c(c8)CN(C8CCC(=O)NC8=O)C9=O)nn7)CC6)c(F)c5)c4)cn3)CC2)[C@@H]1N (some centres unmarked) [Compound 282] | > 1 µM |
| CC1(N)CCN(c2cnc(Sc3cccc(NC(=O)C4CCC(N5CCN(c6ccc7c(c6)C(=O)N(C6CCC(=O)NC6=O)C7=O)CC5)CC4)c3)cn2)CC1 (centres unmarked) [Compound 270] | > 1 µM |
| C[C@@H]1OCC2(CCN(c3cnc(Sc4cccc(NC(=O)CCN5CC=C(c6ccc(C(=O)N7CCN(c8ccc9c(c8)CN(C8CCC(=O)NC8=O)C9=O)CC7)nc6)C(C)(C)C5)c4)cn3)CC2)[C@@H]1N (some centres unmarked) [Compound 276] | > 1 µM |

Second part, the compound after the results:

| DC50 | Structure (SMILES) |
| --- | --- |
| < 0.1 µM | Cc1cc(C(=O)Nc2cccc(Sc3cnc(N4CCC(C)(N)CC4)cn3)c2)ccc1N1CCC(N2CCN(c3nnc(C(=O)NCc4ccc5c(c4)CN(C4CCC(=O)NC4=O)C5=O)cc3Cl)CC2)CC1 (centres unmarked) [Compound 507] |
| < 0.1 µM | CC1(N)CCN(c2cnc(Sc3cccc(NC(=O)c4ccc(N5CCC(N6CC=C(c7ccc(C(=O)NCc8ccc9c(c8)CN(C8CCC(=O)NC8=O)C9=O)nn7)CC6)C5)cc4)c3)cn2)CC1 (centres unmarked) [Compound 402] |
| < 0.1 µM | CC1(N)CCN(c2cnc(Sc3cccc(NC(=O)c4ccc(N5CCC(N6CCN(c7cnc(C(=O)NCc8ccc9c(c8)CN(C8CCC(=O)NC8=O)C9=O)cc7Cl)CC6)CC5)nc4)c3)cn2)CC1 (centres unmarked) [Compound 484] |
| > 1 µM | CC1(N)CCN(c2cnc(Sc3cccc(NC(=O)c4ccc(N5CCC(N6CCN(c7ccc(C(=O)NCc8ccc9c(c8)CN(C8CCC(=O)NC8=O)C9=O)nn7)CC6)CC5)cn4)c3)cn2)CC1 (centres unmarked) [Compound 447] |
| > 1 µM | CC1(N)CCN(c2cnc(Sc3cccc(NC(=O)c4ccc(N5CCC(N6CCN(c7nnc(C(=O)NCc8ccc9c(c8)CN(C8CCC(=O)NC8=O)C9=O)cc7Cl)CC6)CC5)cc4)c3)cn2)CC1 (centres unmarked) [Compound 491] |
| < 0.1 µM | CC1(N)CCN(c2cnc(Sc3cccc(NC(=O)c4ccc(N5CCC(N6CCN(c7cnc(C(=O)NCc8ccc9c(c8)CN(C8CCC(=O)NC8=O)C9=O)cc7Cl)CC6)CC5)c(F)c4)c3)cn2)CC1 (centres unmarked) [Compound 496] |
| < 0.1 µM | Cc1cc(C(=O)NCc2ccc3c(c2)CN(C2CCC(=O)NC2=O)C3=O)ncc1C1=CCN(C2CCN(c3ccc(C(=O)Nc4cccc(Sc5cnc(N6CCC(C)(N)CC6)cn5)c4)cc3)CC2)CC1 (centres unmarked) [Compound 480] |
| < 0.1 µM | CC1(N)CCN(c2cnc(Sc3cccc(NC(=O)c4ccc(C5=CCC(N6CC=C(c7ccc(C(=O)NCc8ccc9c(c8)CN(C8CCC(=O)NC8=O)C9=O)nn7)CC6)CC5)cc4)c3)cn2)CC1 (centres unmarked) [Compound 368] |
| 0.1 to 1 µM | Cc1cc(C(=O)Nc2cccc(Sc3cnc(N4CCC(C)(N)CC4)cn3)c2)ccc1N1CCC(N2CC=C(c3ccc(C(=O)NCc4ccc5c(c4)CN(C4CCC(=O)NC4=O)C5=O)nc3F)CC2)CC1 (centres unmarked) [Compound 469] |
| < 0.1 µM | CC1(N)CCN(c2cnc(Sc3cccc(NC(=O)c4ccc(N5CCC(N6CCN(c7ccc(C(=O)NCc8ccc9c(c8)CN(C8CCC(=O)NC8=O)C9=O)c(F)c7)CC6)CC5)c(F)c4)c3)cn2)CC1 (centres unmarked) [Compound 503] |

— patent US20240383908A1, “SYNTHESIS AND APPLICATION OF PHOSPHATASE DEGRADER” (HINOVA PHARMACEUTICALS INC., priority 2021, published 2024)
